Reference: PMC12380353, “MK-8527 is a novel inhibitor of HIV-1 reverse transcriptase translocation with potential for extended-duration dosing” (PLOS Biology, 2025)
Where “and” joins values, the source holds several entries; their conditions need not be identical. Identical values can stand only once. Like-named read-outs stand apart in the source and are kept apart here.

Experiments:
HIV-1 [1] = assay: microbe, parasite or virus in culture; details: for IC50: Human immunodeficiency virus 1, PBMC
Method: IC50 values were determined, and a persistence ratio was calculated for each compound. GFP, green fluorescent protein; hpi, hours post-infection; IC50, half maximal inhibitory concentration.
Assay media in each well were then evacuated and the cells resuspended using the gentle setting on the BlueWasher (BlueCatBio; Lebanon, NH, USA). Centrifugation and wash steps were repeated to ensure removal of extracellular compound.
MT4-GFP cells were infected with WT R8 virus, and PBMCs were infected with pNLG1-P2A-GFP. […] IC50 values were determined by nonlinear 4-parameter curve fitting of the data. A persistence ratio was calculated for each compound by dividing the IC50 from variable B (IC50B) by the IC50 from variable A (IC50A).

HIV-1 [2] = assay: microbe, parasite or virus in culture
HIV-1 [3] = details: HIV-1, PBMCs; read-out: PBMC IC50; cited from earlier work
[4] = CellTiter-Glo (CTG) cytotoxicity in MT4-GFP cells; details: human
HIV RT [5] = biological target: T1, HIV RT (Human immunodeficiency virus type 1 group M subtype B, UniProt P04585); assay: HIV-RT primer extension assay (chain termination); type: biochemical; details: 1 µM each dNTP
T1 construct: HIV RT (final concentration, 1,200 nM)
Method: The reaction protocol was adapted from previous work. Primers and template used for this assay are described in Fig 8A.
All reagent stocks were in a base assay buffer consisting of 50 mM Tris pH 7.5 and 50 mM NaCl in nuclease-free water. […] Samples were then heated to 95 °C for 10 min prior to storage at −20 °C until being resolved by polyacrylamide gel electrophoresis with 7 M urea.

HIV RT [6] = biological target: T1, HIV RT; assay: Iron footprinting assay of RT translocation state; type: biochemical; details: 1 µM MK-8527-TP or ISL-TP, 5 µM ddATP; absence or presence of dTTP
Method: The translocation state of RT was assessed with a site-specific iron footprinting assay adapted from previous work. Primer and template used for this assay are described in Fig 7A. The presence of Fe^2+ ions in the reaction generated hydroxyl radicals that cleaved the DNA template in a site-specific manner at the nucleotide closest to the RNase H active site. In addition to an RT inhibitor in the reaction, dTTP, the subsequent dNTP, was provided in dose titration to force the translocation of the 3′-primer terminus from the pre-translocation N-site to the post-translocation P-site.
(final concentration, 1 µM), or ddATP (final concentration, 5 µM), Td43/Pd30 pre-annealed primer and template (final concentration, 200 nM based on Cy3-labeled Td43 concentration), and dTTP titrated at various concentrations. All reagent stocks were in a base assay buffer consisting of 120 mM Tris pH 7.5, 20 mM NaCl, and 6 mM MgCl2 in nuclease-free water. […] The reaction was then heated to 37 °C for 5 min before quenching 1:1 with gel-loading dye followed by heating at 95 °C for 10 min. Samples were stored at −20 °C until being resolved by polyacrylamide gel electrophoresis with 7 M urea.

HIV-1 [7] = tested on: HIV-1
HIV-1 [8] = assay: Single-cycle antiviral assay in PBMCs; type: cell-based; details: HIV-1, single-cycle assay, human PBMCs, 10% NHS; read-out: PBMC IC50
Method: To evaluate the ability of inhibitors to prevent HIV-1 infection in primary cells, human PBMCs obtained from Biological Specialty Corporation (Colmar, PA, USA) were used to assess antiviral activity. The proviral variants used for these studies were generated by site-directed mutagenesis in a proviral vector derived from NL43 [52] that encodes GFP (pNLG1-P2A-GFP). Virus was produced by transfection in 293T cells.
PBMCs were activated with phytohemagglutinin (PHA) at 5 μg/mL in Roswell Park Memorial Institute (RPMI) 1640 medium containing 10% heat-inactivated fetal bovine serum (FBS) for 2–3 days. Compound plates were prepared by dispensing compounds dissolved in DMSO into 384-well poly-d-lysine-coated plates (0.2 μL per well) using an Echo acoustic dispenser (Labcyte; San Jose, CA, USA). Each compound was tested in a 10-point serial 3-fold dilution (typical final concentrations: 5,000 to 0.1 nM). Controls included no inhibitor (DMSO only) and a combination of 3 antiviral agents, efavirenz, indinavir, and the integrase strand transfer inhibitor, L-002254051, at final concentrations of 4 μM each. PHA-activated human PBMCs were washed and resuspended in RPMI 1640 containing 10% NHS and 30 units per mL of interleukin-2 (IL-2) at 6 × 10^5 cells per mL. PBMCs were added to the compound plates and cultured for 24 h at 37 °C, 5% CO2, and 90% humidity. The appropriate HIV-1 variant was added to the PBMCs and cultured at 37 °C, 5% CO2, and 90% humidity for an additional 24 h.
HIV-1–infected cells were quantified by counting the number of GFP cells in each well using an Acumen eX3 scanner (SPT Labtech; Melbourn, UK).

HIV-1 [9] = assay: Multicycle antiviral assay in MT4-GFP cells; type: cell-based; details: WT HIV-1, multicycle assay, 10% NHS
Method: Compounds were evaluated for their ability to prevent HIV-1 infection in MT4-GFP cells as described in Diamond, and colleagues. HIV-1 replication was monitored using the MT4-gag-GFP clone D3, and MT4 cells with a GFP reporter gene, the expression of which is dependent on the HIV-1 expressed proteins tat and rev. […] Proviral variants used for these studies were generated by site-directed mutagenesis in the WT R8 proviral plasmid. Virus was produced by transfection in 293T cells.
Briefly, MT4-GFP cells were cultured overnight with the appropriate HIV-1 variant at an approximate multiplicity of infection of 0.01. After approximately 19 h of infection, the cells were washed and resuspended in assay media containing 10% normal human serum (NHS) before being added to 384-well compound plates containing 10-point serial 3-fold dilutions of compound. Controls included no inhibitor (dimethyl sulfoxide [DMSO] only) and a combination of 3 antiviral agents, efavirenz, indinavir, and an integrase strand transfer inhibitor, L-002254051, at final concentrations of 4 µM each. The infected or treated cells were cultured at 37 °C, 5% CO2, and 90% humidity until evaluation of infection was conducted at approximately 48 and 72 h post-infection by counting the number of GFP cells in each well using an Acumen eX3 scanner (SPT Labtech; Melbourn, UK). The reproductive ratio, R, was calculated by dividing the number of infected cells at 72 h by the number at 48 h post-infection. The percentage inhibition caused by a test compound was calculated by the following formula:
inhibition = [1−(Rtest compound − Rpositive control)]/(RDMSO only − Rpositive control) × 100%\]
The dose–response curves of each test compound were plotted as percentage inhibition versus the test concentration.

MT4-GFP cells = assay: CellTiter-Glo (CTG) cytotoxicity in MT4-GFP cells; details: read-out: MT4-GFP CTG CC50, CellTiter-Glo

`C#C[C@]1(CO)O[C@@H](n2cnc3c(N)nc(F)nc32)C[C@@H]1O` [ISL, 4′-ethynyl-2-fluoro-2′-deoxyadenosine, reference compound] gave an IC50 (HIV-1 [1]; 48 h, read-out: Persistence assay IC50B, PBMCs) of 39.7 ± 23.9 nM, an IC50 (HIV-1 [1]; read-out: Persistence assay IC50A, PBMCs) of 0.8 ± 0.48 nM and an IC50 (HIV-1 [2]; Human immunodeficiency virus 1, 48 h, read-out: Persistence assay IC50B, MT4-GFP cells) of 25.5 ± 9.96 nM. The IC50 (HIV-1 [2]; Human immunodeficiency virus 1, read-out: Persistence assay IC50A, MT4-GFP cells) was 0.89 ± 0.63 nM, the IC50 (HIV-1 [3]) was 0.2 nM and 0.23 nM and the CC50 [4] was greater than 42000 nM.
For `Nc1ncnc2c1ncn2[C@H]1CC[C@@H](CO[P@@](=O)(O)O[P@](=O)(O)OP(=O)(O)O)O1` [ddATP, dideoxyadenosine triphosphate, reference compound], the “Chain termination mechanism (ICT/DCT)” value (HIV RT [5]) was “only inhibits via ICT” and the “Translocation state of RT” value (HIV RT [6]) was “mostly in the post-translocation state”.
In the case of “(2R,3S,5R)-5-(4-amino-5-methyl-7H-pyrrolo[2,3-d]pyrimidin-7-yl)-2-ethynyl-2-(hydroxymethyl)tetrahydrofuran-3-ol [Compound 8]”, the “Persistence ratio (MT4-GFP)” value (HIV-1 [7]) is reported as 6, the IC50 (HIV-1 [8]) is reported as 58.8 nM and the “Persistence ratio (PBMC)” value (HIV-1 [1]; IC50B/IC50A, PBMCs) is reported as 18. It also gave an IC50 (HIV-1 [9]) of 85.4 nM and a CC50 (MT4-GFP cells) of 38800 nM.
